The source of these data is ChEMBL document CHEMBL5291721, “A preclinical secondary pharmacology resource illuminates target-adverse drug reaction associations of marketed drugs” (Nat Commun, 2023).

Some targets named below: D(1A) dopamine receptor (Homo sapiens, UniProt P21728); Histamine H3 receptor (Homo sapiens, UniProt Q9Y5N1); D(3) dopamine receptor (Homo sapiens, UniProt P35462).
For experiment [1], the target named is T1, Prostaglandin G/H synthase 1 (Homo sapiens, UniProt P23219). The format is functional.
Experiment [2] addresses Sodium-dependent noradrenaline transporter (Homo sapiens, UniProt P23975).
Experiment [3] deals with T1, Prostaglandin G/H synthase 1. The format is functional. This is another data set of the same source.
Experiment [4] has as its target T2, 5-hydroxytryptamine receptor 1A (Homo sapiens, UniProt P08908).
T2 sequence (P08908 whole entry): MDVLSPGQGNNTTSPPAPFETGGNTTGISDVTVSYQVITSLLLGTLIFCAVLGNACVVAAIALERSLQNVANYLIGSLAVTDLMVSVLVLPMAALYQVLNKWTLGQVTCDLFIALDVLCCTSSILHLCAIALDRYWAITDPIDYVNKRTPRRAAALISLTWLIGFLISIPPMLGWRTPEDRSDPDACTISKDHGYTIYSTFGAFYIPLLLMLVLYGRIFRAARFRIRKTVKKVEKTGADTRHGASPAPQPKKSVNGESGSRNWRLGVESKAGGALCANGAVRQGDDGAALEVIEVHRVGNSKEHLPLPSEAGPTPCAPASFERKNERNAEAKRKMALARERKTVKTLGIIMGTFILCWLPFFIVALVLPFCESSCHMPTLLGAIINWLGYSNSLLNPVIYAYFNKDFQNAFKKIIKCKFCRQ

The next experiment addresses Acetylcholinesterase (Homo sapiens, UniProt P22303). The format is functional.
Experiment [5] concerns the target T3, Muscarinic acetylcholine receptor M2 (Homo sapiens, UniProt P08172).
T3 sequence (P08172 whole entry): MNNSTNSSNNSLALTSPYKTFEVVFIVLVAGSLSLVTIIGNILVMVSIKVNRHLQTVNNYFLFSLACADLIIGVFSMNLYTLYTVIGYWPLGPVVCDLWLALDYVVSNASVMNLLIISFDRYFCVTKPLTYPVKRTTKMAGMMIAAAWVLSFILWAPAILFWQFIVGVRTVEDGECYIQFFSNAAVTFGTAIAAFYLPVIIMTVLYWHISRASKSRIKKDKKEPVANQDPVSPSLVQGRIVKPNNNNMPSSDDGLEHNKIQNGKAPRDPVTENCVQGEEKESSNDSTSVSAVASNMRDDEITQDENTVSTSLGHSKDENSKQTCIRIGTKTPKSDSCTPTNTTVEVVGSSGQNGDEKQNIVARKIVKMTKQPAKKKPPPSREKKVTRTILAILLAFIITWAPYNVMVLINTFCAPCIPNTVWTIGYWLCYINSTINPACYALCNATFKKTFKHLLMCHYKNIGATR

In experiment [6] the target is cGMP-inhibited 3',5'-cyclic phosphodiesterase 3A (Homo sapiens, UniProt Q14432). In kind it is functional.
Chain of cGMP-inhibited 3',5'-cyclic phosphodiesterase 3A (Q14432 whole entry): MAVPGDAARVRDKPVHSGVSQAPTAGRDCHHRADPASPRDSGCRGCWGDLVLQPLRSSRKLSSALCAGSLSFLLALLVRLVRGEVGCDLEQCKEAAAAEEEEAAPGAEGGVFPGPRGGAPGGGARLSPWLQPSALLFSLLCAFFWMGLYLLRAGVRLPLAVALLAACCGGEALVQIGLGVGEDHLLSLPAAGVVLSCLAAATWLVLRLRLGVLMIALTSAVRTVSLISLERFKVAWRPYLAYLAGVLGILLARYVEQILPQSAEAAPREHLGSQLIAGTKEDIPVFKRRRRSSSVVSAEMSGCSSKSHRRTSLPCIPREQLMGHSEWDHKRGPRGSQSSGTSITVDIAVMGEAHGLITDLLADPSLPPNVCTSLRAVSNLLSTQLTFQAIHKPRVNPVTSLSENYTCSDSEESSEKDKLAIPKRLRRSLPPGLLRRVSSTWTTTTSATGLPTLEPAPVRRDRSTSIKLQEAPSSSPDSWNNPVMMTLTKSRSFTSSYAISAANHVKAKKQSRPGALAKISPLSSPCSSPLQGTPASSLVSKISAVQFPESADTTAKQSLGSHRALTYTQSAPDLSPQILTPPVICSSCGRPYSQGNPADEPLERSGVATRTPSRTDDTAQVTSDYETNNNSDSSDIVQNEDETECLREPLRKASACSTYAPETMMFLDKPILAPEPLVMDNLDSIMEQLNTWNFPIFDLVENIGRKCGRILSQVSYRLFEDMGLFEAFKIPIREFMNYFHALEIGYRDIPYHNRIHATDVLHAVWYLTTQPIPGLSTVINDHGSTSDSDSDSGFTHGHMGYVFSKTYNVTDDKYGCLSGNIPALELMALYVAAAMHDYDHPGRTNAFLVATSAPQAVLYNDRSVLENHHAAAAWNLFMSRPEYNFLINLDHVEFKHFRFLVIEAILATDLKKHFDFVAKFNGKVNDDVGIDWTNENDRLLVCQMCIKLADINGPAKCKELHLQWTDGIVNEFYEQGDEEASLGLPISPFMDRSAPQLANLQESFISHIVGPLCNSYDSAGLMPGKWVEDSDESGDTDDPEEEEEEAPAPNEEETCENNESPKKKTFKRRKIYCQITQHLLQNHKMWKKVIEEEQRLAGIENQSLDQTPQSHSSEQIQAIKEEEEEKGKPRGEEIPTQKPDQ
Experiment [7] deals with T4, Alpha-1A adrenergic receptor (Homo sapiens, UniProt P35348).
T4 sequence (P35348 whole entry): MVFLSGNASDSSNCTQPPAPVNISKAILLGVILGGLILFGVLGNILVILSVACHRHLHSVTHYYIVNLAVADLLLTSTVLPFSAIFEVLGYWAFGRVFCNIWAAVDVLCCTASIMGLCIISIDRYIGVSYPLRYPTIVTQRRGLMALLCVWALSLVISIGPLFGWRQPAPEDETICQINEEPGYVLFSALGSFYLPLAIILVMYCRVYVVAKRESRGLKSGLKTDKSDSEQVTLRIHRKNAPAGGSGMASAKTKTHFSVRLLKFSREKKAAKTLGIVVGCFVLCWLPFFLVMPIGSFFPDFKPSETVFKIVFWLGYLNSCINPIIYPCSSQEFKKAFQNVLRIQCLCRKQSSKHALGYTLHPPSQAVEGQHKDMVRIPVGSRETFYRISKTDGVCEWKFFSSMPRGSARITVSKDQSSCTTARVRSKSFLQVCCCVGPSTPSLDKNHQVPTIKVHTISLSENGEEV
The format is functional, cell-based.

Experiment [8] concerns the target Sodium-dependent dopamine transporter (Homo sapiens, UniProt Q01959).
The target of another experiment is Prothrombin (Homo sapiens, UniProt P00734). In kind it is functional.
Experiment [9] has as its target T5, Amine oxidase [flavin-containing] A (Homo sapiens, UniProt P21397).
T5 sequence (P21397 whole entry): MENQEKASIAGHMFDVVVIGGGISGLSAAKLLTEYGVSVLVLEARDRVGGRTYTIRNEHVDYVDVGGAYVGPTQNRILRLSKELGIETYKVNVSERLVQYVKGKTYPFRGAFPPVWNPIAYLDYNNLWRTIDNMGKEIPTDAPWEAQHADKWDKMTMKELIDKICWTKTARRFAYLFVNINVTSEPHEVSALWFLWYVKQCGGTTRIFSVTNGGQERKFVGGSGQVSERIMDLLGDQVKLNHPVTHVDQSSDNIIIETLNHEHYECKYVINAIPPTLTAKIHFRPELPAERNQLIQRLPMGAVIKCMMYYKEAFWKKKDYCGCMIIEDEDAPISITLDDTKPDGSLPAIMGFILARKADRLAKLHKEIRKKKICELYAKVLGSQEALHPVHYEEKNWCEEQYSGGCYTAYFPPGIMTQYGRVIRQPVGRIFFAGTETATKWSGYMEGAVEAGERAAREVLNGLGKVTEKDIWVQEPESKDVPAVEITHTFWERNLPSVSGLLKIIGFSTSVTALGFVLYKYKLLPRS
The format is functional.

The target of a further experiment is T6, Thromboxane A2 receptor (Homo sapiens, UniProt P21731).
T6 sequence (P21731 whole entry): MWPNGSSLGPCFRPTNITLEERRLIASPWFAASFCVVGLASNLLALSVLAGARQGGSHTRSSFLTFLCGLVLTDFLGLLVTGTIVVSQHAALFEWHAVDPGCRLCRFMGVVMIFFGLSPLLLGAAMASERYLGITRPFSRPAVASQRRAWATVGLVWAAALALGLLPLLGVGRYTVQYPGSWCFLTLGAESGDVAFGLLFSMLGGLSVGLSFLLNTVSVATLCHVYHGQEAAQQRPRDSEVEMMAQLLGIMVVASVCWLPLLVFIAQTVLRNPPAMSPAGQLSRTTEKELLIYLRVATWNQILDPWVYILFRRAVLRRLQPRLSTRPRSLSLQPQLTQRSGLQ
The format is functional, cell-based.

Experiment [10] has as its target 3',5'-cyclic-AMP phosphodiesterase 4A (Homo sapiens, UniProt P27815). In kind it is functional.

The structures appear in SMILES notation.
Also: assay procedure not described here.

Chain of D(3) dopamine receptor (P35462 whole entry): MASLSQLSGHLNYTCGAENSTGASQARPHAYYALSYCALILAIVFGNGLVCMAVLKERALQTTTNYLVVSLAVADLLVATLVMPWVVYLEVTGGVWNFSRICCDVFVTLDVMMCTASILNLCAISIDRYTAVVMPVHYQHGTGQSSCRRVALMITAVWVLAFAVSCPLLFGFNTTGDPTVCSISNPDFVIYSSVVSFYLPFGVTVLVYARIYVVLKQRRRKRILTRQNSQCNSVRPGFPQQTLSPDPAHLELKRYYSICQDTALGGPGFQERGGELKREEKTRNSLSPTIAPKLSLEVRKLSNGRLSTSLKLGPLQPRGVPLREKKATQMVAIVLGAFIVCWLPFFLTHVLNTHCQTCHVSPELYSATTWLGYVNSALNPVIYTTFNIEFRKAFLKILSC
Chain of Acetylcholinesterase (P22303 whole entry): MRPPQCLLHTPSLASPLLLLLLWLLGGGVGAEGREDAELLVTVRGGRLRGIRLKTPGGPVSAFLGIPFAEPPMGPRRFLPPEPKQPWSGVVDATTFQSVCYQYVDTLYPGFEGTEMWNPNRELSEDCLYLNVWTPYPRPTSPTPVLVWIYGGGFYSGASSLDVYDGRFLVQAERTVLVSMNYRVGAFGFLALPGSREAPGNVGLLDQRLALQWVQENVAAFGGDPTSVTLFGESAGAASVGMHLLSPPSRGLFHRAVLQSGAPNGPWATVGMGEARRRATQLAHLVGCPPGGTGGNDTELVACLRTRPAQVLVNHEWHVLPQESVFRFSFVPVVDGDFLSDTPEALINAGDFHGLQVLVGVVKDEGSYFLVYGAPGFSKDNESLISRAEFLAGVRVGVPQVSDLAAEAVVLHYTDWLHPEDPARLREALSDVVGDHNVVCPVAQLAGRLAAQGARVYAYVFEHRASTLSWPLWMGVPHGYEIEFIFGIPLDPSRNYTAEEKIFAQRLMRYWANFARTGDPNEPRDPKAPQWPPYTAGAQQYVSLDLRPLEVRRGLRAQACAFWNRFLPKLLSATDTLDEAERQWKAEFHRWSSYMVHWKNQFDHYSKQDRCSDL
Chain of Histamine H3 receptor (Q9Y5N1 whole entry): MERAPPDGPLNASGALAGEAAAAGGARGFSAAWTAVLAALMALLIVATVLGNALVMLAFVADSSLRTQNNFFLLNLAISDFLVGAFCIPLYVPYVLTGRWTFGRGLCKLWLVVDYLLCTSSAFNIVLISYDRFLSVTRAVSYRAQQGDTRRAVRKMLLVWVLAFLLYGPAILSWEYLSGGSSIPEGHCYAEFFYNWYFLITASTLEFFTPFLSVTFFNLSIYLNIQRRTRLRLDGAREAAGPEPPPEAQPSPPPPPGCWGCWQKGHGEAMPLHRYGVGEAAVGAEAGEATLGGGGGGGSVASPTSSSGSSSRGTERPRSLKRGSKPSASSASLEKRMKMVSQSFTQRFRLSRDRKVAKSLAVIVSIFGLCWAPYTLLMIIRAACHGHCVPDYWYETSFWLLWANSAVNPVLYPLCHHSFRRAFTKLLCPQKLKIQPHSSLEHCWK
Chain of Sodium-dependent dopamine transporter (Q01959 whole entry): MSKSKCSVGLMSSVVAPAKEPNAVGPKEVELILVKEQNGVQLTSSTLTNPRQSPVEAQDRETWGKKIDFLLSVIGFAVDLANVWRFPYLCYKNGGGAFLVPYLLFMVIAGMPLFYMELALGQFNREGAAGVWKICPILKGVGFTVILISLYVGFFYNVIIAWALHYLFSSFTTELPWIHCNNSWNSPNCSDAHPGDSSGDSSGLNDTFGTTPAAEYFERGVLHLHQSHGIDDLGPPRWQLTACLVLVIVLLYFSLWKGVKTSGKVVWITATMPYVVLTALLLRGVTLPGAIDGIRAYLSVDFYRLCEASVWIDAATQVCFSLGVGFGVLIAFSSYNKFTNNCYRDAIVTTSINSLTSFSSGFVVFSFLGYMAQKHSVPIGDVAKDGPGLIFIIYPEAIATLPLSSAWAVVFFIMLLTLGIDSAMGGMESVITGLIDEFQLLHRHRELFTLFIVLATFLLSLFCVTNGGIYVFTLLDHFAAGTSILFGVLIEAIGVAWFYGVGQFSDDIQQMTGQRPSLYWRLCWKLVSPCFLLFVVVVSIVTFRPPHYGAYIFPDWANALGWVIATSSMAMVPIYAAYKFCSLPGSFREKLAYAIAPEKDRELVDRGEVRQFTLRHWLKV
Chain of 3',5'-cyclic-AMP phosphodiesterase 4A (P27815 whole entry): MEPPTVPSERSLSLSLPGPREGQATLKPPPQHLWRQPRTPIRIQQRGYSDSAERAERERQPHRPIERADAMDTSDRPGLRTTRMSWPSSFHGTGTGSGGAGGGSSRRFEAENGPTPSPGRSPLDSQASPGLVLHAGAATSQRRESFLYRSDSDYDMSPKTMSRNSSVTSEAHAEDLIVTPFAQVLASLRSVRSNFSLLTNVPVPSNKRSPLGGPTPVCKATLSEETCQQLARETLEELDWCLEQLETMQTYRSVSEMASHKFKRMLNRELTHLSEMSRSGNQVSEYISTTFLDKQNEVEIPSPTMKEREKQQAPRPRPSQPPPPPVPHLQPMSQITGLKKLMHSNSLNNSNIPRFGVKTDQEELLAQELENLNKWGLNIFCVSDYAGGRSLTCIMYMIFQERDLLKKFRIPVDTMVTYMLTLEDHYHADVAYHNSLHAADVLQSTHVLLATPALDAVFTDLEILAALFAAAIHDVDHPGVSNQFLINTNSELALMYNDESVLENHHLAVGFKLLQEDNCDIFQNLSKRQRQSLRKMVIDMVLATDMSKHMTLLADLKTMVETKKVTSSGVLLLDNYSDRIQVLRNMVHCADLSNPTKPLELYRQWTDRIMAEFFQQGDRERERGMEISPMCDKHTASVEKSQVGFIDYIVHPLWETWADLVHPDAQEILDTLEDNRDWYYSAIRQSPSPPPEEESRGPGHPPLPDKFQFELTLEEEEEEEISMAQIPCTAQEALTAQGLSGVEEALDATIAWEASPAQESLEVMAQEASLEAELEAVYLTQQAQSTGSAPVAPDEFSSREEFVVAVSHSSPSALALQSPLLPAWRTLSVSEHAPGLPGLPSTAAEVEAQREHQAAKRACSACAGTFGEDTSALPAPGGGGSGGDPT
Chain of D(1A) dopamine receptor (P21728 whole entry): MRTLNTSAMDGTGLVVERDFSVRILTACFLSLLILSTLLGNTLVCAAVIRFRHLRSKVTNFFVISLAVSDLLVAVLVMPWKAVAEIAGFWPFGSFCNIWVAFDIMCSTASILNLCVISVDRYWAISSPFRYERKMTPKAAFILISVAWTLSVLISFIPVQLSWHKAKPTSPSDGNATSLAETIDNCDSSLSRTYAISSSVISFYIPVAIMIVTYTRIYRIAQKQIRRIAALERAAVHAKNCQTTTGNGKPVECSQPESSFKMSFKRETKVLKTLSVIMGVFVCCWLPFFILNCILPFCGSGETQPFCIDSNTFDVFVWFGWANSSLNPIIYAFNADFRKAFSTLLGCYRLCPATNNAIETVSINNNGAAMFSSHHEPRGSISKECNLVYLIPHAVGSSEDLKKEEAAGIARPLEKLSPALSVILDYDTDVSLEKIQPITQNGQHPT

In the case of `O=C(O)CN(CCN(CC(=O)O)CC(=O)O)CCN(CC(=O)O)CC(=O)O` [PENTETIC ACID], the AC50 in [1] is over 30 µM; in [2] it was 10.9 µM; in experiment [3], over 30 µM; on D(1A) dopamine receptor it was 8.71 µM; in [4] it was over 30 µM; at Histamine H3 receptor, 19.8 µM. For the same compound, the AC50 on Acetylcholinesterase is over 30 µM; in experiment [5] it was 3.91 µM; on D(3) dopamine receptor it was 2.26 µM; in experiment [6], over 30 µM; in experiment [7], over 30 µM; in experiment [8], 6.51 µM. For the same compound, the AC50 (on Prothrombin; in experiment [9]; at Thromboxane A2 receptor; in experiment [10]) was over 30 µM each time.
Regarding `Nc1cccc2c1C(=O)N(C1CCC(=O)NC1=O)C2=O` (stereo not drawn) [POMALIDOMIDE], the AC50 (in [1]; in [2]; in [3]; on D(1A) dopamine receptor; in experiment [4]; at Histamine H3 receptor) was over 30 µM throughout. Moreover, the AC50 (at Acetylcholinesterase; in experiment [5]; on D(3) dopamine receptor; in experiment [6]; in experiment [7]; in experiment [8]) was over 30 µM throughout. Besides, the AC50 (at Prothrombin; in experiment [9]; on Thromboxane A2 receptor; in [10]) was over 30 µM each time.
Regarding `C[Se]CC[C@H](N)C(=O)O` [SELENOMETHIONINE], the AC50 (in experiment [1]; in [2]; in experiment [3]; at D(1A) dopamine receptor; in [4]; at Histamine H3 receptor) was over 30 µM each time. For the same compound, the AC50 (on Acetylcholinesterase; in [5]; on D(3) dopamine receptor; in [6]; in [7]; in experiment [8]) was over 30 µM each time. In addition, the AC50 (on Prothrombin; in [9]; on Thromboxane A2 receptor; in experiment [10]) was over 30 µM throughout.
For the compound `C[N+](C)(C)CCOC(=O)CCC(=O)OCC[N+](C)(C)C` [SUXAMETHONIUM], the AC50 (in experiment [1]; in experiment [2]; in experiment [3]; on D(1A) dopamine receptor; in experiment [4]; at Histamine H3 receptor) was over 30 µM throughout. Besides, the AC50 was over 30 µM on Acetylcholinesterase; over 30 µM in experiment [5]; over 30 µM at D(3) dopamine receptor; over 30 µM in experiment [6]; 0.667 µM in [7]; over 30 µM in [8]. Further, the concentration at half-maximal activity (AC50) (on Prothrombin; in [9]; at Thromboxane A2 receptor; in experiment [10]) was over 30 µM each time.
As to `Cc1ccsc1C(=CCCN1CCC[C@@H](C(=O)O)C1)c1sccc1C` [TIAGABINE], the AC50 in experiment [1] is over 30 µM; in experiment [2], over 30 µM; in [3], 24.4 µM; on D(1A) dopamine receptor it was over 30 µM; in experiment [4], over 30 µM; on Histamine H3 receptor, over 30 µM. In addition, the AC50 (on Acetylcholinesterase; in [5]; at D(3) dopamine receptor; in experiment [6]; in [7]; in experiment [8]) was over 30 µM each time. Besides, the AC50 was over 30 µM at Prothrombin, over 30 µM in experiment [9], over 30 µM on Thromboxane A2 receptor and 23.6 µM in experiment [10].
Regarding `Cc1ccc(C(=O)c2ccc(CC(=O)O)n2C)cc1` [TOLMETIN], the AC50 in experiment [1] was 0.0415 µM; in experiment [2], over 30 µM; in experiment [3], 0.081 µM; on D(1A) dopamine receptor it was over 30 µM; in experiment [4], over 30 µM; on Histamine H3 receptor it was over 30 µM. The AC50 (on Acetylcholinesterase; in experiment [5]; on D(3) dopamine receptor; in experiment [6]; in [7]; in experiment [8]) was over 30 µM each time. In addition, the AC50 (at Prothrombin; in experiment [9]; on Thromboxane A2 receptor; in [10]) was over 30 µM in each case.
For the compound `Cc1ccccc1C(=O)Nc1ccc(C(=O)N2CCCC(O)c3cc(Cl)ccc32)c(C)c1` (stereo not drawn) [TOLVAPTAN], the AC50 in experiment [1] is over 30 µM; in experiment [2], over 30 µM; in experiment [3], over 30 µM; on D(1A) dopamine receptor it was over 30 µM; in [4], 11 µM; at Histamine H3 receptor, over 30 µM. For the same compound, the concentration at half-maximal activity (AC50) (at Acetylcholinesterase; in experiment [5]; on D(3) dopamine receptor; in [6]; in experiment [7]; in experiment [8]) was over 30 µM throughout. The AC50 at Prothrombin is over 30 µM; in [9], over 30 µM; on Thromboxane A2 receptor it was 7.42 µM; in [10], over 30 µM.
As for `C[C@]12C=CC(=O)C=C1CC[C@H]1[C@@H]3C[C@@H](O)[C@](O)(C(=O)CO)[C@@]3(C)C[C@H](O)[C@@]12F` [TRIAMCINOLONE], the AC50 (in experiment [1]; in experiment [2]; in [3]; at D(1A) dopamine receptor; in experiment [4]; on Histamine H3 receptor) was over 30 µM throughout. Further, the AC50 (at Acetylcholinesterase; in [5]; at D(3) dopamine receptor; in experiment [6]; in experiment [7]; in experiment [8]) was over 30 µM throughout. Further, the AC50 (on Prothrombin; in [9]; on Thromboxane A2 receptor; in experiment [10]) was over 30 µM in each case.

As usually defined, the AC50 is the concentration at which the activity in the assay is half-maximal. Read a high AC50 as activity only at high concentration.
